One experiment deals with AML cell line HL60. Nature of the experiment: Anti-proliferation assay on HL60 AML cells. Type of experiment: cell-based. Conditions: for IC25 / IC75: potential dosing for further experiments. The procedure: 2500 cells were plated per well in 384 well plates. […] CellTiter Glo was used as a detection reagent. Extracts were incubated with the AML HL60 cells for 72 hours.

Experiment [1] relates to AML (Acute myeloid leukemia) PDCs, M4 subtype (SB 33866). Nature of the experiment: Anti-proliferation assay on AML PDCs. Type of experiment: cell-based, human. Conditions: for Inhibitory Concentration IC75 / Inhibitory Concentration IC25 / pIC50: AML cells (M4); for Inhibitory Concentration IC25: calculated using IC50 and hill slope; for pIC50: read-out: Inhibitory Concentration IC50; for inhibition at 10 µM: assay drug control @ 10 uM. The procedure:
Anti-proliferation assays were performed on 6 types of primary patient-derived cancer cells (PDCs) from 6 different human donors, as described in Table 1:
Tests were performed in 384-well plates (24×16), using 1250 to 10,000 cells/well depending on the size and proliferation rate of different PDCs, in 30 ul of culture media (DMEM/F12 with serum and growth factors), with control wells set aside on each plate for media alone (4 wells), untreated PDCs (4 wells), and for PDCs treated with 10 ul of a known anti-cancer drug as a control. […] The outermost rows/columns of the plates were filled with PBS (pH 7.4) to avoid an edge-effect and were considered as blanks.
Standardized aqueous extracts identified in Table 2 were prepared in main stock solutions by dissolving 1 mg of extract in 1 ml PBS (phosphate-buffered saline, pH 7.4).
Anti-Proliferation Assay Protocol: 30 ul of cells were plated at the density of 1250 to 10,000 cells/well. The plate was incubated in a CO2 incubator for 0/N incubation for 24 hours. […] Final assay concentrations of made from stock solutions of standardized aqueous extracts identified in Table 2 were 100 ug/ml, 30 ug/ml, and 10 ug/ml. Since 10 ul extract was added to 30 ul of cell suspension, it diluted 4 times, so to maintain the final assay concentrations, 4× concentrated extract solutions (400 ug/ml, 120 ug/ml, and 40 ug/mo) were prepared from main stock (1 mg/ml) and added to the plate. In all experiments, 10 ul of 4 times concentrated stock (4×) was added to wells containing 30 ul of cell suspension to achieve final assay concentrations at 1X.
Once extracts were added to incubated cells and mixed gently, the plate was given a brief spin and incubated in the CO2 incubator for 72 hours. The plate was removed from the incubator and 10 ul of detection reagent (CellTiterGlo®; Promega Corporation, Wisconsin, USA) added to each well of the 384 well plate. The plate was incubated (10 min) and luminescence counts measured, with luminescence produced proportional to the number of viable (living, metabolically active) cells for each assay. The assay described above is a two-dimensional (2D) assay.
In this Example, AML drugs were used as disease specific controls.
As discussed above in Example I, 6 extracts (Ayuflex®, Capros®, Phyto-BGS®, PrimaVie®, Sensoril®, and Ayuric®) were tested on AML PDC-SB cells (33866, M-4 type, subject) at 3 concentrations: 100 ug/ml, 30 ug/ml, and 10 ug/ml.

Experiment [2] relates to Breast Cancer PDCs, ER/PR+ Her2 equivocal (HR+). Kind of experiment: Anti-proliferation assay on breast cancer HR+ PDCs. Type of experiment: cell-based, human. Conditions: drug alone @ 10 uM; for inhibition at 10 µM: Homo sapiens. The procedure:
(§1) The outermost rows/columns of the plates were filled with PBS (pH 7.4) to avoid an edge-effect and were considered as blanks. Standardized aqueous extracts identified in Table 2 were prepared in main stock solutions by dissolving 1 mg of extract in 1 ml PBS (phosphate-buffered saline, pH 7.4). […] The plate was incubated in a CO2 incubator for 0/N incubation for 24 hours. […] Once extracts were added to incubated cells and mixed gently, the plate was given a brief spin and incubated in the CO2 incubator for 72 hours. The plate was removed from the incubator and 10 ul of detection reagent (CellTiterGlo®; Promega Corporation, Wisconsin, USA) added to each well of the 384 well plate. […] The assay described above is a two-dimensional (2D) assay.

In experiment [3] the test system is Glioma PDCs (Glioblastoma Grade IV). Kind of experiment: Anti-proliferation assay (CellTiterGlo, 72 h) on glioma PDCs. Type of experiment: cell-based, human. The procedure: as §1
(In general: Cellular ATP, detected with luciferase, serves as a proxy for viable cell number.)

For experiment [4], the system named is Breast Cancer PDCs, ER/PR− Her2+ (Her2+). Kind of experiment: Anti-proliferation assay on breast cancer Her2+ PDCs. Type of experiment: cell-based, human. Conditions: drug alone @ 10 uM; for inhibition at 10 µM: Homo sapiens. How it is done:
as §1

In experiment [5] the test system is Glioma SB 32833 Glioblastoma Grade IV patient derived cells. Nature of the experiment: Anti-proliferation assay on glioma PDCs SB 32833. Type of experiment: cell-based. Conditions: Homo sapiens; for inhibition at 10 µM: drug @ 10 uM; for inhibition at 100 µM: Temozolomide @ 100 uM. The procedure:
The anti-cancer activity of AyuFlex®, Capros®, and Ayuric® was further tested on two other glioma PDCs taken from 2-3 different subjects (SB 6129, SB 32833 (person)). […] Also, the anti-cancer activity of AyuFlex®, Capros®, and Ayuric® was further tested on existing glioblastoma cell line U87 MG, to allow comparisons with other compositions known in the art. AyuFlex®, Capros®, and/or Ayuric® were incubated with the new PDC lines and the U87 MG cell line for 72 hours, as described in Example I above.
Table 68 relates to FIG. 31, a graph showing the efficacy of AyuFlex®, Capros®, and/or Ayuric® on Glioma SB 32833 Glioblastoma Grade IV patient derived cells, in a combination study.

In experiment [6] the test system is Breast Cancer PDCs, Triple negative (TN), SB 36344. Nature of the experiment: Anti-proliferation assay on breast cancer TN PDCs. Type of experiment: cell-based, human. Conditions: drug alone @ 10 uM; for inhibition at 10 µM: Homo sapiens. How it is done: as §1
[7] abbreviates: read-out: % Inhibition, single replicates.

We go through four compounds from US20220233624A9, “ANTI-CANCER AND ANTI-PROLIFERATIVE COMPOSITIONS, AND METHODS FOR THEIR USE IN TREATING CANCER” (Natreon, Inc., priority 2020, published 2022).

pIC50: −log10 of the molar value. Where “and” joins values, the source holds several entries; their conditions need not be identical. Identical values can stand only once. Like-named read-outs stand apart in the source and are kept apart here.

Consider `Nc1ccn([C@@H]2O[C@H](CO)[C@@H](O)[C@@H]2O)c(=O)n1` [Cytarabine, cytarabine], for which the IC25 (in general, the point of the concentration-response curve where the effect stands at 25%) with AML cell line HL60 (HL60 AML cells) stood at 298 nM. Also, the IC75 (in general, the concentration needed for an effect of 75%) in the experiment with AML cell line HL60 (HL60 AML cells) came out at 1080 nM. Moreover, the inhibition at 3 µM is at least 90% in the experiment with AML cell line HL60 (Homo sapiens, HL-60); 99% in experiment [1] (Homo sapiens, drug alone 3 uM, read-out: inhibition of AML proliferation); 99% in experiment [1] (Homo sapiens, drug alone @ 3 uM, read-out: % Inhibition Avg); 99% in experiment [1] (Homo sapiens, drug alone @ 3 uM, read-out: % Inhibition n1); 99% in experiment [1] (Homo sapiens, drug alone @ 3 uM, read-out: % Inhibition n2); 99% in experiment [1] (Homo sapiens, drug alone @ 3 uM, read-out: % Inhibition n3). In addition, the pIC50 was 6.25 in the experiment on AML cell line HL60 (Homo sapiens, HL-60, dose-response curve, FIG. 35) and 6.98 in experiment [1] (Homo sapiens). In experiment [1], the “Inhibitory Concentration IC75” value is 470 nM. The “Inhibitory Concentration IC25” value in experiment [1] is on record as 23 nM.

In the experiment with AML cell line HL60 (HL60 AML cells), arsenic trioxide had a pIC50 of 5.61, an IC25 of 1720 nM and an IC75 of 3010 nM. In the experiment with AML cell line HL60 (dose-response curve, FIG. 35), this compound gave a pIC50 of 5.64. For the same compound, in experiment [1], the “Inhibitory Concentration IC75” value is 6450 nM, the “Inhibitory Concentration IC25” value was 1380 nM and the pIC50 was 5.52. In addition, in experiment [1] (drug alone 3 uM), the “inhibition of AML proliferation” value came out at 97%. Besides, in experiment [1] (drug alone @ 3 uM), the “% Inhibition Avg” value stood at 97%, the “% Inhibition n1” value came to 97%, the “% Inhibition n2” value was 97% and the “% Inhibition n3” value is given as 97%.

Take `CS(=O)(=O)N1CCN(Cc2cc3nc(-c4cccc5[nH]ncc45)nc(N4CCOCC4)c3s2)CC1` [GDC-0941, pictilisib]: the inhibition at 10 µM in experiment [2] (read-out: % Inhibition Avg) is 68%; in experiment [2] (setting [7]), 70%; in experiment [3] (Homo sapiens, drug alone @ 10 uM, read-out: % Inhibition Avg), 81%; in experiment [3] (Homo sapiens, drug alone @ 10 uM, read-out: % Inhibition, single replicates), 83%; in experiment [4] (read-out: % Inhibition Avg), 70%; in experiment [4] (setting [7]), 71%. Moreover, the inhibition at 10 µM in experiment [5] (read-out: % Inhibition Avg) worked out at 100%; in experiment [5] (read-out: % Inhibition n1), 100%; in experiment [5] (read-out: % Inhibition n2) it was 100%; in experiment [5] (read-out: % Inhibition n3), 100%; in experiment [6] (read-out: % Inhibition Avg), 83%; in experiment [6] (setting [7]), 84%. Further, the inhibition at 10 µM in experiment [1] (Homo sapiens, read-out: % Inhibition Avg) came out at 59%; in experiment [1] (Homo sapiens, read-out: % Inhibition n1) it was 56%; in experiment [1] (Homo sapiens, read-out: % Inhibition n2) it was 63%. For the same compound, the “% Inhibition, single replicates” value in experiment [2] (10 µM) is reported as 67%; in experiment [3] (drug alone @ 10 uM, 10 µM), 79%; in experiment [4] (10 µM), 69%; in experiment [6] (10 µM), 82%.

`Cn1nnc2c(C(N)=O)ncn2c1=O` [Temozolomide, temozolomide] gave an inhibition at 30 µM in experiment [3] (Homo sapiens, Temozolomide alone @ 30 uM) of 24%. In addition, the inhibition at 100 µM in experiment [3] (Homo sapiens, Temozolomide alone @ 100 uM, read-out: % Inhibition Avg) was found to be 32%; in experiment [3] (Homo sapiens, Temozolomide alone @ 100 uM, read-out: % Inhibition, single replicates) it was 41%; in experiment [5] (read-out: % Inhibition Avg), 27%; in experiment [5] (read-out: % Inhibition n1), 41%; in experiment [5] (read-out: % Inhibition n2), 21%; in experiment [5] (read-out: % Inhibition n3) it was 18%. The inhibition at 300 µM turned out to be 19% in experiment [3] (Homo sapiens, Temozolomide alone @ 300 uM, read-out: % Inhibition Avg) and 28% in experiment [3] (Homo sapiens, Temozolomide alone @ 300 uM, read-out: % Inhibition, single replicates). In addition, the “% Inhibition, single replicates” value in experiment [3] (Temozolomide alone @ 30 uM, 30 µM) is 16% and 15%; in experiment [3] (Temozolomide alone @ 100 uM, 100 µM) it was 27% and 29%; in experiment [3] (Temozolomide alone @ 300 uM, 300 µM), 14% and 15%.
